Tested on: Escherichia coli
Test: Antimicrobial serial dilution assay (MIC)
Assay type: cell-based
Settings: serial dilution 67 to 0.5 µg/mL, overnight
Procedure: Antimicrobial activity was determined by our established protocol, according to Becker et al.. In general, all of the pure compounds were dissolved in MeOH with a concentration of 1 mg/mL. Assessment of the antimicrobial activity was determined using the serial dilution assay method to calculate the minimum inhibitory concentration (MIC). In this method, the compounds were diluted in a range between 67 and 0.5 µg/mL in 96 well-plate and incubated with the test organism overnight. The next day, growth of the test organisms was visually observed, and MIC was determined in the lowest concentration where a clear zone (no growth of test organism) was observed. In our attempt for novel anti-infective compounds, an established standard protocol using various organisms representing a broad spectrum of pathogens of clinical interest, as well as sensitive indicator strains, was used (bacteria: Bacillus subtilis DSM 10, Staphylococcus aureus DSM 346, Acinetobacter baumanii DSM 30008, Chromobacterium violaceum DSM 30191, Escherichia coli DSM 1116 and Pseudomonas aeruginosa PA14; mycobacteria: Mycobacterium smegmatis ATCC 700084 and fungi: Candida albicans DSM 1665, Schizosaccharomyces pombe DSM 70572, Mucor hiemalis DSM 2656, Wickerhamomyces anomala DSM 6766 and Rhodotorula glutinis DSM 10134). Methanol as a solvent to dissolve the pure compounds was used as the negative control. Oxytetracycline, ciprofloxacin, gentamycin, and kanamycin were used as positive controls against bacteria, whereas nystatin was used against fungi. A detailed experimental procedure can be found in the SI.
Protocol: Antimicrobial Activity Assay
The assay was conducted as a minimum inhibitory concentration (MIC) assay in 96-well round- bottom microtiter plates using the parameters summarized in Table S1 and as already described in [S1]. Stocks of the test organisms were generated by growing the organisms overnight in 50 mL shaking flasks filled with 25 mL of the growth medium at 140r p m ( media and temperatures see Table S1). If the organisms were well grown the next day, which was checked by the occurrence of an optical density (OD) […] of the suspension (OD600 nm for bacteria, OD548 nm for fungi and M. smegmatis), aliquots of these were stored in 1.5 mL reaction tubes in a freezer at −80 °C for up to 12 months. Upon use, aliquots were unthawed and the OD of the suspension measured and adjusted by diluting with the respective growth medium. OD600 nm was adjusted to 0.01 and OD548 nm to 0.1. Subsequently, 150 μ L of the adj usted suspensions were added to all wells of a 96-well microtiter plate (one test organism per plate). In row A, additional 130 μ L of suspensions plus 20 μ L of the test compounds (1 mg/mL) and the controls (one compound/column) were added. MeOH was used as negative controls, while different positive controls (references) were used for the test organisms (see Table S1). Then, starting from row A, 150 μ L of t he suspension were transferred to the next row, the contents thoroughly mixed, and 150 μ L transferred to the following row. The remaining 150 μ L after row H were discarded. […]
of the test compounds, ranging from 66.7 μg/mL in row A to 0.52 μ g/mL in row H. The microtiter plates were then incubated overnight on a microplate shaker at 800 rpm at 30 or 37 °C (see Table S1) and were visually evaluated the next day. The MIC is defined as the lowest concentration where no growth of the test organism (clear zone) was observed. A lower MIC thus corresponds to a higher antimicrobial activity of the test compound.
Table S1: MIC assay experiment parameters test organism strain No growth incubation positive control […]
Escherichia coli DSM1116 MHB1 37 oxytetracyclin 1.0mg/ mL […]
Candidaa lbicans DSM1665 MYC3 30 nystatin 1.0mg/ mL
Schizosaccharomyces DSM70572 MYC3 30 nystatin 1.0mg/ mL
Mucor hiemalis DSM2656 MYC3 30 nystatin 1.0mg/ mL
Wickerhamomyces DSM6766 MYC3 30 nystatin 1.0mg/ mL
Rhodotorula glutinis DSM10134 MYC3 30 nystatin 1.0mg/ mL […]

Q: For CC1=CC2CC(C)CCC2C2(C)C(=O)OC(C(=O)O)C(C)C12 (centres unmarked) [compound 3, Colposetin C], which MIC is on record?
A: n.i

Q: Which MIC does the source give for CC(=O)OC(C(=O)O)C(C)C1C(C)=CC2CC(C)CCC2C1(C)C(O)=C1C(=O)C(C)N(C)C1=O (centres unmarked) [compound 1, Colposetin A] here?
A: n.i

Q: With CC(C=CCC(C)CCC=C(C)C(=O)C1=C(O)C(C)N(C)C1=O)=CC(C)C(O)C(=O)O (centres unmarked) [compound 4, Colpomenoic acid A] as the compound, how does the MIC read?
A: n.i

Q: For CCC(C(=O)O)C1C(C)=CC2CC(C)CCC2C1(C)C(O)=C1C(=O)C(C)N(C)C1=O (centres unmarked) [compound 2, Colposetin B], which MIC is on record?
A: n.i

Q: With CC(C=CCC(C)C=CC=C(C)C(=O)C1=C(O)C(C)N(C)C1=O)=CC(C)C(O)C(=O)O (centres unmarked) [compound 5, Colpomenoic acid B] as the compound, how does the MIC read?
A: n.i

— publication PMC8224775, “Five Tetramic Acid Derivatives Isolated from the Iranian Fungus Colpoma quercinum CCTU A372” (Biomolecules, 2021)
